Experimental data reported in patent US12521435B2, “Photodynamic therapy composition” (CASE WESTERN RESERVE UNIVERSITY, priority 2020, dated 2026).

Legend:
PC3pip tumors [1] = assay: Multiple sequential PDT of tumors around 500 mm^3; assay type: in vivo, athymic nude mice; details: E64 intratumorally injected after bleaching; following 48 h (Day 2 and Day 3)
Procedure: Tumor size and mouse body weight was monitored every other day for a 30 day period. […] PDT was performed at 24 h, 2 days, and 3 days post-injection. Fluorescence before and after each PDT was monitored with Maestro, and intensity was quantified. One group of mice that received AuNPs-Pc158 were intratumorally injected with cathepsin inhibitor E64 after the first PDT exposure. After PDT, tumor size and mice body weight were monitored over 24 days.

PC3pip cells = assay: In vitro PDT, CCK8 assay; assay type: cell-based; details: E64 added to block the cleavage
Procedure: In vitro PDT was evaluated by CCK8 assay. PC3pip and PC3flu cells were seeded in 96-well plates at 1×10^4 cells/well. […] The 96-well plate was irradiated (Appolo Horizon projector, Acco Brands) with radiant exposure at 1 J/cm^2, after which the cells were incubated overnight. After incubation, CCK8 agent (DojinDo Laboratories) was added to each well (10 μL/well) and incubated for 3 h at 37° C., and absorbance at 450 nm was measured for each well.

[2] = tested on: PSMA-positive PC3pip cells; assay: In vitro targeting and intracellular Pc158 release (confocal microscopy); assay type: cell-based; details: E64 added prior to coincubation with AuNPs
Procedure: Retrovirally transformed PSMA-positive PC3pip cells and transfection control PSMA-negative PC3flu cells were incubated for specific uptake and intracellular release studies. Both PC3pip and PC3flu cells were cultured in RPMI1640 medium (Invitrogen Life Technology) with 2 mmol/L L-glutamine, 10% FBS at 37° C., and 5% CO2. PC3pip and PC3flu cells were seeded in μ-Slide 8-Well Chamber Slide (ibidi) at 2000 cells/well. When the cells grew to 70% confluence, AuNPs-Pc158 conjugations were added at a Pc158 concentration of 1 μmol/L and coincubated for 1 h, 6 h, and 24 h. Then the cells were washed with PBS and stained with DAPI, LysoOrange, and MitoGreen (all from abcam) for 30 min at 37° C. and 5% CO2, after which they were washed again with PBS and replete medium added. The release of Pc158 and localization of nuclei, lysosomes, and mitochondria was observed under a Leica HyVolution SP8 confocal microscope (Leica Microsystem Inc.).

PC3pip tumors [3] = assay: In vivo tumor targeting and intratumor Pc158 release (Maestro fluorescence imaging); parameters: species or system athymic nude mice; details: E64 intratumorally injected before AuNPs-Pc158 administration
Procedure: All animal procedures were performed according to Institutional Animal Care and Use Committee (JACUA)-approved protocols (2015-0033). Four- to five-week-old male athymic nude mice were subcutaneously implanted with PC3pip or PC3flu cells (100 μL, cells suspended in PBS/matrigel at 1×10^7 cells/mL) on the right and left flanks, respectively. When the tumors grew to a sufficient size, AuNPs-Pc158 conjugations were intravenously injected via the tail vein with a Pc158 dose of 0.1 mg/kg. The mice were preimaged before, and at 0.5 h, 1 h, 4 h, 8 h, 24 h, 48 h, 72 h, 96 h, and 120 h after NPs injection using the Maestro In vivo Imaging System (PerkinElmer) to monitor the delivery and release of Pc158. Multispectral images were unmixed into their component spectra (Pc158 autofluorescence and background). Component images were used to quantitatively determine the average Pc158 fluorescence intensity of the PC3pip and PC3flu tumors. Tumor tissues at 24 h postinjection were also collected, cut, and imaged to see the Pc158 distribution (details in the histology analysis section).

For `CC(C)C[C@H](NC(=O)[C@H]1O[C@@H]1C(=O)O)C(=O)NCCCCN=C(N)N` [E64], which “Pc158 fluorescence in the tumor after first PDT” value (PC3pip tumors [1]) is on record?
Its value is “fluorescence inhibition”.

What about the “release of free Pc158 and PDT with AuNPs-Pc158” value (PC3pip cells) of the same compound?
Its value is “significantly hindered”.

What about the “process of free Pc158 generation from AuNPs-Pc158 in cells” value [2] of the same compound?
The value was “could be blocked”.

What about the “Pc158 fluorescence in PC3pip tumors” value (PC3pip tumors [3]) of the same compound?
Its value is “no Pc158 fluorescence was measurable”.
